Key:
[1] = system: TERT; test: TERT expression in GBM39 orthotopic xenograft tumors; type: in vivo, mice; conditions: 50, 100 or 200 mg/kg BID, oral gavage, 5 days, FIG. 3
Procedure: (§1) In this study, Compound 101 was dosed twice daily (BID) via oral gavage to mice with GBM39 orthotopic xenograft (GBM39 cells). Tumor size was measured via Bioluminescence imaging (BLI). BLI readings were taken on treatment day 1 and day 5. Tumors were also harvested for downstream RNA analysis.
(§2) For each dose group (N=6), the following steps were performed. Briefly, athymic nu/nu mice were injected intracranially with patient-derived Glioblastoma cells. Animals began treatment once tumor BLI levels reach the range of 1×10^8-5×10^8. A dosing solution of Compound 101 (50 mg/kd, 100 mg/kd, or 200 mg/kg) or vehicle were administered by oral gavage (P.O., 50-100 uL volume) for 5 days. The dosing solutions were prepared similar to the process in Example 4. Dosing was twice daily on days 1-4. On day 5 the mice received a single dose, prior to harvest. Three hours after the last dose, mice were sacrificed and their brains were harvested and processed for analysis. […] TERT expression was also found to be reduced in all three dose groups (FIG. 3).

[2] = system: GBM39 cells orthotopic xenograft; test: GBM orthotopic xenograft survival study; type: in vivo, mice; conditions: oral gavage, 14 days of dosing
Procedure: GBM39 cells, a human PDX model of GBM, were selected for this study. GBM39 cells were stably transduced (MOI=3) with Firefly Luciferase Lentifect Purified Lentiviral Particles (Genecopoiea, #LPP-FLUC-Lv105) and were verified to be expressing luciferase stably and at similar levels 48 h pre-xenograft. A total of 1-4×10E4 luciferase-expressing PDX cells in 4 uL volume were injected into the right frontal cortex of athymic nu/nu mice (6-7-wk.-old, female). Animals were randomized into treatment groups and dosing initiated once tumors reach an average BLI of 1×10^8.
(§3) For this study, treatment began on day 7 post tumor cell implant and ceased on day 20 for a total of 14 days of dosing. Compound 101 was formulated with Solutol, DMSO and water and administered by oral gavage twice daily (BID). The dosage groups were vehicle control, 50 mg/kg BID, 25 mg/kg BID, and 10 mg/kg BID. […] Tumor size was monitored following injection of luciferin (150 mg/kg i.p.) 1-2 times weekly by bioluminescence imaging (Xenogen IVIS Spectrum Imaging System). Animals were weighed three times per week, and daily after initial weight loss is observed.

[3] = system: Mutant TERT; test: HepG2 hTERT mRNA assay (qPCR); type: cell-based, human; conditions: Homo sapiens; HepG2 cells (mutated TERT), 48 hours, TERT mRNA via qPCR
Procedure: (§4) HepG2 cells (hepatocyte carcinoma (HCC) cells; with mutated TERT) or HEK293T cells (with wild type (wt) TERT) were seeded at 4,000 cells/well in 96-well plates. The following day, test compounds were added to cells for at concentrations of 25 uM, 12.5 uM, 6.25 uM, 3.125 uM, 1.563 uM, 0.781 uM, 0.391 uM, 0.195 uM, 0.098 uM or vehicle control (0.1% DMSO). Each condition was tested in three replicate wells. 48 hours post drug addition, the cells were harvested for RNA using the 96-Magmax RNA Isolation kit (Cat. No. AM1830). RNA was converted to cDNA using the Superscript III First strand cDNA synthesis kit (Cat. No. 18080051). RNA and cDNA concentration and quality were determined using the NanoQuant nucleic acid quantification method. 500 ng cDNA from each sample was used to detect TERT mRNA via qPCR. GUSB was also measured as an internal control and fold change to vehicle control was determined using the delta CT method.

[4] = system: HepG2 subcutaneous tumor xenograft; test: HepG2 subcutaneous tumor xenograft, tumor volume; type: in vivo, mice; conditions: for Mean Tumor Volume: p.o, BID for 5 days
Procedure: The pharmacodynamic (PD) profiling of Compound 101 was determined in Athymic nude mice bearing subcutaneous tumor xenograft model.
(§5) HepG2 (Hepatocellular carcinoma cell line containing the C228T TERTp mutation) cells were implanted into the flanks of Athymic Nude-Foxn1nu mice. Once tumors reached 250-300 mm3 in size as measured by caliper, treatment of Compound 101 was initiated. Compound 101 was administered orally (P.O.) for 5 days BID at either 25 mg/kg, 50 mg/kg, or vehicle control (N=4 per group). Body weight and tumor size were measured on days 1, 3, and 5. Two hours after final dose administration, mice were sacrificed, and tumors extracted for RNA isolation and TERT mRNA expression analysis via RT-qPCR. Both TERT and GUSB were measured using SYBR green primers and relative TERT levels were analyzed using the delta delta CT method.

[5] = system: TERT; test: TERT mRNA expression (RT-qPCR) in HepG2 xenograft tumors; type: in vivo, mice; conditions: for TERT Expression (RT-qPCR) Mean Fold: p.o, BID for 5 days
Procedure: as §5

[6] = Body weight in GBM orthotopic xenograft survival study; type: in vivo, mice; conditions: highest dosage group (50 mg/kg BID), first 3 dosing days
Procedure: as §3

[7] = system: wt TERT; test: HEK293T hTERT mRNA assay (qPCR); type: cell-based, human; conditions: HEK293 cells (wt TERT), 48 hours, class symbols
Procedure: as §4

[8] = Body weight in HepG2 xenograft mice; type: in vivo; conditions: p.o, BID for 5 days
Procedure: as §5

[9] = system: GBM39 orthotopic xenograft; test: GBM39 orthotopic xenograft, tumor BLI; type: in vivo, mice; conditions: for tumor BLI change: 5 days
Procedure: as §1, §2
In a second study with Compound 101 in the GBM mice model, the 200 mg/kg dosing group was changed to a 100 mg/kg once daily dosing (QD). The baseline BLI readings were taken two days prior to 1st treatment.

[10] = oral, 25 mg/kg and 50 mg/kg BID, 5 days (both dose levels)

Q: Which “TERT expression in tumor” value [1] does the source give for `O=C(O)C[C@@H]1C[C@@H](c2ccc(C(F)(F)F)cc2)CN(Cc2ccc(C(F)(F)F)cc2)C1` [Compound 101, 2-((3S,5S)-1-(4-(trifluoromethyl)benzyl)-5-(4-(trifluoromethyl)phenyl)piperidin-3-yl)acetic acid] here?
A: reduced

Q: And the “Median Survival” value ([2]; 20 mg/kg/day, bid (n = 10))?
A: 50

Q: What about the “Median Survival” value ([2]; 50 mg/kg/day, bid (n = 10)) of the same compound?
A: 62.5

Q: What about the “Median Survival” value ([2]; 100 mg/kg/day, bid × 3 days, then 50 mg/kg/day, qd (n = 9)) of the same compound?
A: Undefined

Q: What about the IC50 [3] of the same compound?
A: < 500 nM

Q: And the “Mean Tumor Volume” value ([4]; 25 mg/kg, Day 1)?
A: 252.22 mm3

Q: And the “Mean Tumor Volume” value ([4]; 25 mg/kg, Day 3)?
A: 230.02 mm3

Q: What about the “Mean Tumor Volume” value ([4]; 25 mg/kg, Day 5) of the same compound?
A: 197.97 mm3

Q: And the “Mean Tumor Volume” value ([4]; 50 mg/kg, Day 1)?
A: 251.37 mm3

Q: What about the “Mean Tumor Volume” value ([4]; 50 mg/kg, Day 3) of the same compound?
A: 212.58 mm3

Q: And the “Mean Tumor Volume” value ([4]; 50 mg/kg, Day 5)?
A: 168.34 mm3

Q: What about the tumor volume change [4, 10] of the same compound?
A: tumor regression

Q: What about the “TERT Expression (RT-qPCR) Mean Fold” value ([5]; 25 mg/kg) of the same compound?
A: 0.21 Fold

Q: What about the “TERT Expression (RT-qPCR) Mean Fold” value ([5]; 50 mg/kg) of the same compound?
A: 0.19 Fold

Q: And the “TERT mRNA in tumor” value [5, 10]?
A: TERT mRNA reduction

Q: And the body weight [6]?
A: mice losing weight

Q: What about the “wt TERT IC50 uM HEK293” value [7] of the same compound?
A: “++”-IA

Q: What about the “% Mean body weight change” value ([8]; 25 mg/kg, DAY 1) of the same compound?
A: 0%

Q: What about the “% Mean body weight change” value ([8]; 25 mg/kg, DAY 3) of the same compound?
A: −4.36%

Q: What about the “% Mean body weight change” value ([8]; 25 mg/kg, DAY 5) of the same compound?
A: −3.65%

Q: And the “% Mean body weight change” value ([8]; 50 mg/kg, DAY 1)?
A: 0%

Q: What about the “% Mean body weight change” value ([8]; 50 mg/kg, DAY 3) of the same compound?
A: −11.09%

Q: And the “% Mean body weight change” value ([8]; 50 mg/kg, DAY 5)?
A: −10.68%

Q: What about the “tumor BLI change” value ([9]; 50, 100 or 200 mg/kg BID, oral gavage, FIG. 2) of the same compound?
A: significant tumor reduction

Q: What about the tumor size ([9]; second study, 100 mg/kg once daily dosing (QD)) of the same compound?
A: sufficient to reduce tumor size

Q: And the “tumor BLI change” value ([9]; second study: 50 mg/kg BID, 100 mg/kg BID or 100 mg/kg QD, FIG. 4)?
A: significant tumor reduction

Reference: patent publication US20230416202A1, “Small Molecule Compounds and Compositions” (Telo Therapeutics, Inc., priority 2020, published 2023)
